This is an account of results in patent US8044082B2, “N-phenylacetamide inhibitors of the enzyme SOAT-1 and pharmaceutical/cosmetic compositions comprised thereof” (Galderma Research & Development, priority 2007, dated 2011).

`CC(C)c1cccc(C(C)C)c1NC(=O)CN1C(=O)N(c2ccccc2Cl)C2(CCCCC2)C1=O` [compound (I.20), 2-[1-(2-Chlorophenyl)-2,4-dioxo-1,3-diazaspiro[4.5]dec-3-yl]-N-(2,6-di-isopropylphenyl)acetamide] returned a melting point of 252 °C.
Molecule `Cc1ccccc1N1C(=O)N(CC(=O)Nc2c(C(C)C)cccc2C(C)C)C(=O)C12CCCCC2` [compound (I.21), N-(2,6-Diisopropylphenyl)-2-(2,4-dioxo-1-o-tolyl-1,3-diazaspiro[4.5]dec-3-yl)acetamide] gave a melting point of 238 °C.
Then `CC(C)c1cccc(C(C)C)c1NC(=O)CN1C(=O)N(Cc2ccccc2)C2(CCCCC2)C1=O` [compound (I.22), 2-(1-Benzyl-2,4-dioxo-1,3-diazaspiro[4.5]dec-3-yl)-N-(2,6-diisopropyl-phenyl)acetamide], with 214 °C; and `CC(C)c1cccc(C(C)C)c1NC(=O)CN1C(=O)N(c2ccc(Cl)cc2)C2(CCCC2)C1=O` [compound (I.24), 2-[1-(4-Chlorophenyl)-2,4-dioxo-1,3-diazaspiro[4.4]non-3-yl]-N-(2,6-di-isopropylphenyl)acetamide], with 270 °C.
As to `CCCN1C(=O)N(CC(=O)Nc2c(C(C)C)cccc2C(C)C)C(=O)C12CCCCC2` [compound (I.25), N-(2,6-Diisopropylphenyl)-2-(2,4-dioxo-1-propyl-1,3-diazaspiro[4.5]dec-3-yl)acetamide], the melting point came out at 253 °C.
The molecule `CC(C)c1cccc(C(C)C)c1NC(=O)CN1C(=O)N(CC2CCCCC2)C2(CCCCC2)C1=O` [compound (I.27), 2-(1-Cyclohexylmethyl-2,4-dioxo-1,3-diazaspiro[4.5]dec-3-yl)-N-(2,6-di-isopropylphenyl)acetamide] showed a melting point of 219 °C.
`CC(C)CN1C(=O)N(CC(=O)Nc2c(C(C)C)cccc2C(C)C)C(=O)C12CCCCC2` [compound (I.28), N-(2,6-Diisopropylphenyl)-2-(1-isobutyl-2,4-dioxo-1,3-diazaspiro[4.5]dec-3-yl)acetamide] returned a melting point of 233 °C.
The molecule `CCCCCN1C(=O)N(CC(=O)Nc2c(C(C)C)cccc2C(C)C)C(=O)C12CCCCC2` [compound (I.29), N-(2,6-Diisopropylphenyl)-2-(2,4-dioxo-1-pentyl-1,3-diazaspiro[4.5]dec-3-yl)acetamide] registered a melting point of 200 °C.
Then `CCCCCCCN1C(=O)N(CC(=O)Nc2c(C(C)C)cccc2C(C)C)C(=O)C12CCCCC2` [compound (I.30), N-(2,6-Diisopropylphenyl)-2-(1-heptyl-2,4-dioxo-1,3-diazaspiro[4.5]dec-3-yl)acetamide], with 208 °C; and `CC(C)c1cccc(C(C)C)c1NC(=O)CN1C(=O)N(CC2CC2)C2(CCCCC2)C1=O` [compound (I.31), 2-(1-Cyclopropylmethyl-2,4-dioxo-1,3-diazaspiro[4.5]dec-3-yl)-N-(2,6-di-isopropylphenyl)acetamide], with 240 °C; and `CC(C)c1cccc(C(C)C)c1NC(=O)CN1C(=O)N(CC(C)(C)C)C2(CCCCC2)C1=O` [compound (I.32), N-(2,6-Diisopropylphenyl)-2-[1-(2,2-dimethylpropyl)-2,4-dioxo-1,3-diazaspiro[4.5]dec-3-yl]acetamide], with 250 °C.
For `COc1ccccc1N1C(=O)N(CC(=O)Nc2c(C(C)C)cccc2C(C)C)C(=O)C12CCCCC2` [compound (I.33), N-(2,6-Diisopropylphenyl)-2-[1-(2-methoxyphenyl)-2,4-dioxo-1,3-diazaspiro[4.5]dec-3-yl]acetamide], the melting point was determined as 229 °C.
For `Cc1ccc(N2C(=O)N(CC(=O)Nc3c(C(C)C)cccc3C(C)C)C(=O)C23CCCC3)cc1` [compound (I.34), N-(2,6-Diisopropylphenyl)-2-(2,4-dioxo-1-p-tolyl-1,3-diazaspiro[4.4]non-3-yl)acetamide] the value was 278 °C; for `CCCCCCN1C(=O)N(CC(=O)Nc2c(C(C)C)cccc2C(C)C)C(=O)C12CCCCC2` [compound (I.35), N-(2,6-Diisopropylphenyl)-2-(1-hexyl-2,4-dioxo-1,3-diazaspiro[4.5]dec-3-yl)acetamide], 205 °C; for `CCc1ccc(N2C(=O)N(CC(=O)Nc3c(C(C)C)cccc3C(C)C)C(=O)C23CCCCC3)cc1` [compound (I.36), N-(2,6-Diisopropylphenyl)-2-[1-(4-ethylphenyl)-2,4-dioxo-1,3-diazaspiro[4.5]dec-3-yl]acetamide], 221 °C.
Consider `CCc1ccc(N2C(=O)N(CC(=O)Nc3c(C(C)C)cccc3C(C)C)C(=O)C23CCCC3)cc1` [compound (I.37), N-(2,6-Diisopropylphenyl)-2-[1-(4-ethylphenyl)-2,4-dioxo-1,3-diazaspiro[4.4]non-3-yl]acetamide], for which the melting point was 246 °C.
`CCCCc1ccc(N2C(=O)N(CC(=O)Nc3c(C(C)C)cccc3C(C)C)C(=O)C23CCCCC3)cc1` [compound (I.38), 2-[1-(4-Butylphenyl)-2,4-dioxo-1,3-diazaspiro[4.5]dec-3-yl]-N-(2,6-diisopropylphenyl)acetamide]: the melting point came to 220 °C.
As for `CCCCc1ccc(N2C(=O)N(CC(=O)Nc3c(C(C)C)cccc3C(C)C)C(=O)C23CCCC3)cc1` [compound (I.40), 2-[1-(4-Butylphenyl)-2,4-dioxo-1,3-diazaspiro[4.4]non-3-yl]-N-(2,6-diisopropylphenyl)acetamide], the melting point is 228 °C.
The molecule `CC(C)c1cccc(C(C)C)c1NC(=O)CN1C(=O)N(c2ccc(OCc3ccccc3)cc2)C2(CCCC2)C1=O` [compound (I.41), 2-[1-(4-Benzyloxyphenyl)-2,4-dioxo-1,3-diazaspiro[4.4]non-3-yl]-N-(2,6-di-isopropylphenyl)acetamide] showed a melting point of 232 °C.
Then `CC(C)c1cccc(C(C)C)c1NC(=O)CN1C(=O)N(c2ccc(CO)cc2)C2(CCCCC2)C1=O` [compound (I.42), N-(2,6-Diisopropylphenyl)-2-[1-(4-hydroxymethylphenyl)-2,4-dioxo-1,3-diazaspiro[4.5]dec-3-yl]acetamide], with 230 °C; and `CCCCCCCCCN1C(=O)N(CC(=O)Nc2c(C(C)C)cccc2C(C)C)C(=O)C12CCCCC2` [compound (I.43), N-(2,6-Diisopropylphenyl)-2-(1-nonyl-2,4-dioxo-1,3-diazaspiro[4.5]dec-3-yl)acetamide], with 183 °C; and `CCCCCCCCN1C(=O)N(CC(=O)Nc2c(C(C)C)cccc2C(C)C)C(=O)C12CCCCC2` [compound (I.44), N-(2,6-Diisopropylphenyl)-2-(1-octyl-2,4-dioxo-1,3-diazaspiro[4.5]dec-3-yl)acetamide], with 202 °C.
Consider `Cc1ccc(N2C(=O)N(CC(=O)Nc3c(C)cc(C)cc3C)C(=O)C23CCCCC3)cc1` [compound (I.45), 2-(2,4-Dioxo-1-p-tolyl-1,3-diazaspiro[4.5]dec-3-yl)-N-(2,4,6-trimethylphenyl)acetamide], for which the melting point stood at 266 °C.
Then `Cc1ccc(N2C(=O)N(CC(=O)Nc3c(C)cccc3C(C)C)C(=O)C23CCCCC3)cc1` [compound (I.47), 2-(2,4-Dioxo-1-p-tolyl-1,3-diazaspiro[4.5]dec-3-yl)-N-(2-isopropyl-6-methylphenyl)acetamide], with 195 °C; and `CCc1cccc(CC)c1NC(=O)CN1C(=O)N(c2ccc(C)cc2)C2(CCCCC2)C1=O` [compound (I.48), N-(2,6-Diethylphenyl)-2-(2,4-dioxo-1-p-tolyl-1,3-diazaspiro[4.5]dec-3-yl)-acetamide], with 214 °C.
Then `CCc1cc(C)cc(CC)c1NC(=O)CN1C(=O)N(c2ccc(C)cc2)C2(CCCCC2)C1=O` [compound (I.49), N-(2,6-Diethyl-4-methylphenyl)-2-(2,4-dioxo-1-p-tolyl-1,3-diazaspiro[4.5]dec-3-yl)acetamide], with 223 °C; and `Cc1ccc(N2C(=O)N(CC(=O)Nc3c(C)cc(C)cc3Cl)C(=O)C23CCCCC3)cc1` [compound (I.50), N-(2-Chloro-4,6-dimethylphenyl)-2-(2,4-dioxo-1-p-tolyl-1,3-diazaspiro[4.5]dec-3-yl)acetamide], with 248 °C; and `CCc1cccc(CC)c1NC(=O)CN1C(=O)N(CCc2ccccc2)C2(CCCCC2)C1=O` [compound (I.51), N-(2,6-Diethylphenyl)-2-(2,4-dioxo-1-phenethyl-1,3-diazaspiro[4.5]dec-3-yl)acetamide], with 178 °C.
For `Cc1ccc(N2C(=O)N(CC(=O)Nc3c(C)cccc3C(C)(C)C)C(=O)C23CCCCC3)cc1` [compound (I.53), N-(2-tert-Butyl-6-methylphenyl)-2-(2,4-dioxo-1-p-tolyl-1,3-diazaspiro[4.5]dec-3-yl)acetamide], the melting point is 120 °C.
For `CCc1ccc(N2C(=O)N(CC(=O)Nc3c(CC)cccc3CC)C(=O)C23CCCCC3)cc1` [compound (I.54), N-(2,6-Diethylphenyl)-2-[1-(4-ethylphenyl)-2,4-dioxo-1,3-diazaspiro[4.5]dec-3-yl]acetamide] the value was 188 °C; for `CCCN1C(=O)N(CC(=O)Nc2c(CC)cccc2CC)C(=O)C12CCCCC2` [compound (I.55), N-(2,6-Diethylphenyl)-2-(2,4-dioxo-1-propyl-1,3-diazaspiro[4.5]dec-3-yl)acetamide], 222 °C; for `CCCCc1ccc(N2C(=O)N(CC(=O)Nc3c(CC)cccc3CC)C(=O)C23CCCCC3)cc1` [compound (I.56), 2-[1-(4-Butylphenyl)-2,4-dioxo-1,3-diazaspiro[4.5]dec-3-yl]-N-(2,6-diethyl-phenyl)acetamide], 171 °C.
For the molecule `CCc1ccc(N2C(=O)N(CC(=O)Nc3c(CC)cccc3CC)C(=O)C23CCCC3)cc1` [compound (I.57), N-(2,6-Diethylphenyl)-2-[1-(4-ethylphenyl)-2,4-dioxo-1,3-diazaspiro[4.4]non-3-yl]acetamide], the melting point turned out to be 191 °C.
`CCCCCCCN1C(=O)N(CC(=O)Nc2c(CC)cccc2CC)C(=O)C12CCCCC2` [compound (I.58), N-(2,6-Diethylphenyl)-2-(1-heptyl-2,4-dioxo-1,3-diazaspiro[4.5]dec-3-yl)acetamide] yielded a melting point of 126 °C.

As usually defined, the melting point is the temperature of the solid-liquid transition.
